Results published in patent US10864253B2, “Tissue protective peptides for preventing and treating diseases and disorders associated with tissue damage” (Araim Pharmaceuticals, Inc., priority 2016, dated 2020).

Key:
Akt = assay: Activation of Akt phosphorylation in HUVECs (Western blot); type: cell-based; details: HUVECs treated with peptide; Western blot anti-phospho-Akt / anti-Akt; FIG. 2
Protocol: In one assay for the activation of AKT by phosphorylation, HUVECs are purchased from Cell Applications (San Diego, Calif.) and grown in medium EGM-2 supplemented with 2% fetal calf serum (FCS) and penicillin/streptomycin (P/S) at 37° C. under air containing 5% CO2 in a humidified incubator. Preliminary experiments can be performed to determine the time course of the phosphorylation of Akt following stimulation by compounds that activated the tissue protective receptor. In some assays, the phosphorylation of Akt reaches a maximum 10 minutes following stimulation by compounds that activated the tissue protective receptor. After HUVECs are treated with tissue protective peptides or controls, cell lysates are prepared and Western blot is performed using anti-Akt and anti-phospho-Akt antibodies (Cell Signaling Technology, Danvers, Mass.). To perform the Western blot, cell lysates are subjected to SDS-PAGE, and transferred to nitrocellulose membranes (Amersham Biosciences, Piscataway, N.J.). The membrane is blocked for 1 h at room temperature with PBS containing 2% BSA and 0.05% Tween 20. The blots are incubated overnight at 4° C. or for 4 h at room temperature with a primary antibody against phospho-Akt, followed by incubation for 1 h with a secondary, horseradish peroxidase-conjugated antibody. Then the blots are reprobed with an antibody against Akt to confirm equal protein loading. […]

[1] = tested on: STZ-induced diabetic mice; assay: STZ-induced diabetic neuropathy mouse model, paw thermal withdrawal latency; type: in vivo; details: STZ diabetic Swiss Webster mice, FIG. 3
Protocol: To test a peptide in a diabetic neuropathy mouse model, male Swiss Webster mice are given a single injection of STZ (180 mg/kg i.p.) to induce insulin-deficient diabetes. Hyperglycemia is confirmed 3 days thereafter, and to ensure induction of sufficient neuropathy, only mice with blood glucose levels exceeding 15 mmol/l are used. […] The time from initiation of heating to paw withdrawal is recorded in 4 separate trials 5 minutes apart, with the median value of the last 3 trials used for each mouse. […]
Briefly, male Swiss Webster mice were given a single injection of STZ (180 mg/kg i.p.) to induce insulin-deficient diabetes. […] The time from initiation of heating to paw withdrawal was recorded in 4 separate trials 5 minutes apart, with the median value of the last 3 trials used for each mouse.

GDKA (Tissue protective peptide)
activation of AKT (phosphorylation of Akt) (Akt): activated AKT | thermal threshold (thermal withdrawal latency) ([1]; eye drops 50 microliters of 50 nanomolar solution to both eyes five days/week, after 12 weeks of therapy): normal thermal threshold | thermal threshold compared with PBS-treated diabetic mice ([1]; eye drops 50 nanomolar, five days/week, 12 weeks): significantly lower
